The text below walks through data of patent US12421229B2, “Hydropyrido[1,2-α]pyrazine compounds for the treatment of autoimmune disease” (Hoffmann-La Roche Inc., priority 2019, dated 2025).

The target of the test is T1, human TLR8 (Homo sapiens, UniProt Q9NR97).
T1 construct: host or cells: HEK293 (HEK-Blue hTLR8)
T1 sequence (Q9NR97 27-1041): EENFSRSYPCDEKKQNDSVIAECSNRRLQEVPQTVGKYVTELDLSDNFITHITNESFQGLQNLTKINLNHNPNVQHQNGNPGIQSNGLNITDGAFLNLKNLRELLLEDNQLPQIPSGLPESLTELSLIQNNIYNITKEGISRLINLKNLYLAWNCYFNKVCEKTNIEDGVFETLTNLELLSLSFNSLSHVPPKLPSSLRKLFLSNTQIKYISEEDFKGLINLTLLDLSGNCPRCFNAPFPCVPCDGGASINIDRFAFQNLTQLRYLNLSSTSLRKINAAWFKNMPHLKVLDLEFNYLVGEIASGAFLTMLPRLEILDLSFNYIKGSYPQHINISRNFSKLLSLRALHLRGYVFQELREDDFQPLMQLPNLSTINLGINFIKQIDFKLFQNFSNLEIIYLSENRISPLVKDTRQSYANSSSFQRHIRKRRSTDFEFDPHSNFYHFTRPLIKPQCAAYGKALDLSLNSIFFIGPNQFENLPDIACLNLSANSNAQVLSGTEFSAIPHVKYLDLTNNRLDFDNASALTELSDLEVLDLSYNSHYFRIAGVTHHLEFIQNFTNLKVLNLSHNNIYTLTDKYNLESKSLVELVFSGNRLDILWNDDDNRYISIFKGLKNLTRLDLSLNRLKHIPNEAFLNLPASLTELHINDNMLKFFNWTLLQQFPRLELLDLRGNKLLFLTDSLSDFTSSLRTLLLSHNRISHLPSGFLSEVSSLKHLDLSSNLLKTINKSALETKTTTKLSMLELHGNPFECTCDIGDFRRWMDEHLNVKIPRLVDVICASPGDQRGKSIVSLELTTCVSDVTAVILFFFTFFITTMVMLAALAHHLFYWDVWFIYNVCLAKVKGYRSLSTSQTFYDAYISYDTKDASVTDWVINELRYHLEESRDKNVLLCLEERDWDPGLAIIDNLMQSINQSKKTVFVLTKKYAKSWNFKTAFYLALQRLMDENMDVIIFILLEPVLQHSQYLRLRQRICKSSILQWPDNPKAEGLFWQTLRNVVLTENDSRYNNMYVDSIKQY
In words: HEK293-Blue-hTLR-8 cells assay. It counts as cell-based. As to conditions: HEK293-Blue-hTLR8 cells, R848 stimulation, 20 hrs, SEAP reporter; read-out: HEK/hTLR8 IC50. The source says:
A stable HEK293-Blue-hTLR-8 cell line was purchased from InvivoGen (Cat. #: hkb-htlr8, San Diego, California, USA). These cells were originally designed for studying the stimulation of human TLR8 by monitoring the activation of NF-κB. A SEAP (secreted embryonic alkaline phosphatase) reporter gene was placed under the control of the IFN-β minimal promoter fused to five NF-κB and AP-1-binding sites. The SEAP was induced by activating NF-κB and AP-1 via stimulating HEK-Blue hTLR8 cells with TLR8 ligands. Therefore the reporter expression was declined by TLR8 antagonist under the stimulation of a ligand, such as R848, for incubation of 20 hrs. The cell culture supernatant SEAP reporter activity was determined using QUANTI-Blue™ kit (Cat. #: rep-qb1, Invivogen, San Diego, Ca, USA) at a wavelength of 640 nm, a detection medium that turns purple or blue in the presence of alkaline phosphatase.
HEK293-Blue-hTLR8 cells were incubated at a density of 250,000˜450,000 cells/mL in a volume of 170 μL in a 96-well plate in Dulbecco's Modified Eagle's medium (DMEM) containing 4.5 g/L glucose, 50 U/mL penicillin, […], […], 2 mM L-glutamine, 10% (v/v) heat-inactivated fetal bovine serum with addition of 20 μL test compound in a serial dilution in the presence of final DMSO at 1% and 10 μL of 60 uM R848 in above DMEM, perform incubation under 37° C. in a CO2 incubator for 20 hrs. Then 20 μL of the supernatant from each well was incubated with 180 μL Quanti-blue substrate solution at 37° C. for 2 hrs and the absorbance was read at 620˜655 nm using a spectrophotometer. The signaling pathway that TLR8 activation leads to downstream NF-κB activation has been widely accepted, and therefore similar reporter assay was modified for evaluating TLR8 antagonist.

Regarding `C[C@@H]1CN(c2ccc(C#N)c3ncccc23)C[C@@H]2C[C@H](Nc3ccc(C[C@@H]4CNCCO4)cc3)CCN21` [Example 21, 5-[(4R,8R,9aS)-4-methyl-8-[4-[[(2R)-morpholin-2-yl]methyl]anilino]-1,3,4,6,7,8,9,9a-octahydropyrido[1,2-a]pyrazin-2-yl]quinoline-8-carbonitrile], the IC50 turned out to be 54 nM.
For the compound `[2H]c1ccc2c(N3C[C@@H]4C[C@H](Nc5ccc(C[C@@H]6CNCCO6)cc5)CCN4[C@H](C)C3)ccc(C#N)c2n1` [Example 22, 5-[(4R,8R,9aS)-4-methyl-8-[4-[[(2R)-morpholin-2-yl]methyl]anilino]-1,3,4,6,7,8,9,9a-octahydropyrido[1,2-a]pyrazin-2-yl]-2-deuterio-quinoline-8-carbonitrile], the IC50 amounted to 49 nM.
The figure for `C[C@@H]1CN(c2ccc(C#N)c3ncccc23)C[C@@H]2C[C@H](c3ccc(N4CCOC[C@@H](N)C4)nc3)CCN21` [Example 23, 5-[(4R,8R,9aS)-8[6-[(6S)-6-amino-1,4-oxazepan-4-yl]-3-pyridyl]-4-methyl-1,3,4,6,7,8,9,9a-octahydropyrido[1,2-a]pyrazin-2-yl]quinoline-8-carbonitrile] is 79 nM; for `C[C@@H]1CN(c2ccc(C#N)c3ncccc23)C[C@@H]2C[C@@H](c3ccc(C4CNCCO4)cc3)CCN21` (stereo partly drawn) [Example 24, 5-[(4R,8S,9aS)-4-methyl-8-(4-morpholin-2-ylphenyl)-1,3,4,6,7,8,9,9a-octahydropyrido[1,2-a]pyrazin-2-yl]quinoline-8-carbonitrile] it is 14 nM.
Under `C[C@@H]1CN(c2ccc(C#N)c3ncccc23)C[C@@H]2C[C@@H](c3ccc(CC4CNCCO4)cc3)CCN21` (stereo partly drawn) [Example 26, 5-[(4R,8S,9aS)-4-methyl-8-[4-(morpholin-2-ylmethyl)phenyl]-1,3,4,6,7,8,9,9a-octahydropyrido[1,2-a]pyrazin-2-yl]quinoline-8-carbonitrile] stands 27 nM.
For the compound `C[C@@H]1CN(c2ccc(C#N)c3ncccc23)C[C@@H]2C[C@H](c3ccc([C@@H]4CNCCO4)cc3)CCN21` [Example 27, 5-[(4R,8R,9aS)-4-methyl-8-[4-[(2R)-morpholin-2-yl]phenyl]-1,3,4,6,7,8,9,9a-octahydropyrido[1,2-a]pyrazin-2-yl]quinoline-8-carbonitrile], the IC50 was determined as 18 nM.
As to `CO[C@H]1CN(c2ccc(O[C@H]3CCN4[C@@H](C3)CN(c3ccc(C#N)c5ncccc35)C[C@H]4C)cn2)C[C@H]1N` [Example 28, 5-[(4R,8S,9aS)-8-[[6-[(3R,4S)-3-amino-4-methoxy-pyrrolidin-1-yl]-3-pyridyl]oxy]-4-methyl-1,3,4,6,7,8,9,9a-octahydropyrido[1,2-a]pyrazin-2-yl]quinoline-8-carbonitrile], the IC50 was found to be 7 nM.
As to `C[C@@H]1CN(c2ccc(C#N)c3ncccc23)C[C@@H]2C[C@@H](Oc3cncc(N4CCNCC4)c3)CCN21` [Example 29, 5-[(4R,8S,9aS)-4-methyl-8-[(5-piperazin-1-yl-3-pyridyl)oxy]-1,3,4,6,7,8,9,9a-octahydropyrido[1,2-a]pyrazin-2-yl]quinoline-8-carbonitrile], the IC50 turned out to be 5 nM.
Turning to `CO[C@@H]1CN(c2ccc(C3CN([C@@H]4CCN5[C@@H](C4)CN(c4ccc(C#N)c6ncccc46)C[C@H]5C)C3)cc2)C[C@H]1N` [Example 30, 5-[(4R,8R,9aS)-8-[3-[4-[(3R,4R)-3-amino-4-methoxy-pyrrolidin-1-yl]phenyl]azetidin-1-yl]-4-methyl-1,3,4,6,7,8,9,9a-octahydropyrido[1,2-a]pyrazin-2-yl]quinoline-8-carbonitrile], the IC50 is 69 nM.
Under `CO[C@H]1CN(c2ccc(C3CN([C@@H]4CCN5[C@@H](C4)CN(c4ccc(C#N)c6ncccc46)C[C@H]5C)C3)cc2)C[C@H]1N` [Example 32, 5-[(4R,8R,9aS)-8-[3-[4-[(3R,4S)-3-amino-4-methoxy-pyrrolidin-1-yl]phenyl]azetidin-1-yl]-4-methyl-1,3,4,6,7,8,9,9a-octahydropyrido[1,2-a]pyrazin-2-yl]quinoline-8-carbonitrile] stands 29 nM.
The figure for `[2H]c1ccc2c(N3C[C@@H]4C[C@H](Nc5ccc(C[C@H]6CNCCO6)cc5)CCN4[C@H](C)C3)ccc(C#N)c2n1` [Example 34, 5-[(4R,8R,9aS)-4-methyl-8-[4-[[(2S)-morpholin-2-yl]methyl]anilino]-1,3,4,6,7,8,9,9a-octahydropyrido[1,2-a]pyrazin-2-yl]-2-deuterio-quinoline-8-carbonitrile] is 40 nM; for `[2H]c1ccc2c(N3C[C@@H]4C[C@@H](N5CC(c6ccc(N7C[C@@H](N)[C@H](OC)C7)cc6)C5)CCN4[C@H](C)C3)ccc(C#N)c2n1` [Example 36] it is 18 nM.
The figure for `[2H]c1ccc2c(N3C[C@@H]4C[C@H](N5CCN(c6ccncc6)CC5)CCN4[C@H](C)C3)ccc(C#N)c2n1` [Example 37, 5-[(4R,8R,9aS)-4-methyl-8-[4-(4-pyridyl)piperazin-1-yl]-1,3,4,6,7,8,9,9a-octahydropyrido[1,2-a]pyrazin-2-yl]-2-deuterio-quinoline-8-carbonitrile] is 116 nM.
